32 compounds from patent EP3421457B1, “PYRIMIDINE FGFR4 INHIBITORS” (priority 2013, dated 2015) can be followed below.

Where a name gives a salt, the structure may show the parent alone.

For one test, the target named is T1, FGFR4 (Homo sapiens, UniProt P22455).
T1 construct: purchased Invitrogen
T1 sequence (P22455 22-802): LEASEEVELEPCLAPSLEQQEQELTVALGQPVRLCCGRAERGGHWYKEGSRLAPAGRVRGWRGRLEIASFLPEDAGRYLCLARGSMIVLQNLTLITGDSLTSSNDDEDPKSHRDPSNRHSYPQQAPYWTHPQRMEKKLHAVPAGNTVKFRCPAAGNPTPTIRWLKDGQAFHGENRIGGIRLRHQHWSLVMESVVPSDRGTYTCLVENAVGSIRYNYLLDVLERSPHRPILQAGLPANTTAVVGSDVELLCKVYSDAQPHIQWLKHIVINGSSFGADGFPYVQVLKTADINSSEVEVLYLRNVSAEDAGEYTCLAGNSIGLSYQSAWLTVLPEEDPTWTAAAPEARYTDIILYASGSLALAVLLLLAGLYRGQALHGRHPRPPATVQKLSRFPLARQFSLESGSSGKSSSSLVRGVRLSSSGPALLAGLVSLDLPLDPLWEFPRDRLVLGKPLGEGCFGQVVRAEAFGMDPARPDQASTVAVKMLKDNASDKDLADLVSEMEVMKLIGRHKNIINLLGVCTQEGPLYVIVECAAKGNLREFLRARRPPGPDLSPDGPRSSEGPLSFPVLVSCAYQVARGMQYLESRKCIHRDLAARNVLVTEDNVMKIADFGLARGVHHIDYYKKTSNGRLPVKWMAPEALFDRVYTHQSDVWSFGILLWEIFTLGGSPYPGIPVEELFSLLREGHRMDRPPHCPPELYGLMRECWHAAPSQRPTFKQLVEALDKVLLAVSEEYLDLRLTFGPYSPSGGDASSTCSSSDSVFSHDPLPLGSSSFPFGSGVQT
Put plainly: IC50 Profiling of Kinase Activity Inhibition (Kinase HotSpot assay). It is filed as biochemical.
Conditions: not given
Compound `C=CC(=O)Nc1cc(N2CCN(C(C)=O)CC2)ccc1Nc1cc(N(C)C(=O)Nc2c(Cl)c(OC)cc(OC)c2Cl)ncn1` [Compound 154, N-(5-(4-acetylpiperazin-1-yl)-2-((6-(3-(2,6-dichloro-3,5-dimethoxyphenyl)-1-methylureido)pyrimidin-4-yl)amino)phenyl)acrylamide] yielded an IC50 of less than 1 nM.

Staying with this test, now noted: Table 1.
`C=CC(=O)Nc1cc(C2CCN(C)CC2)ccc1Nc1cc(N(C)C(=O)Nc2c(Cl)c(OC)cc(OC)c2Cl)ncn1` [Compound 112, N-(2-(6-(3-(2,6-dichloro-3,5-dimethoxyphenyl)-1-methylureido)pyrimidin-4-ylamino)-5-(1-methylpiperidin-4-yl)phenyl)acrylamide] showed an IC50 of less than 1 nM. In the case of `CCN1CCN(c2ccc(Nc3cc(N(C)C(=O)Nc4c(Cl)c(OC)cc(OC)c4Cl)ncn3)c(NC(=O)/C=C\Cl)c2)CC1` [Compound 181, (Z)-3-chloro-N-(2-((6-(3-(2,6-dichloro-3,5-dimethoxyphenyl)-1-methylureido)pyrimidin-4-yl)amino)-5-(4-ethylpiperazin-1-yl)phenyl)acrylamide], the IC50 is less than 1 nM. On the same count and under the same terms, the result for `C=CC(=O)Nc1cccc(OC)c1Nc1cc(N(C)C(=O)Nc2c(Cl)c(OC)cc(OC)c2Cl)ncn1` [Compound 166, N-(2-((6-(3-(2,6-dichloro-3,5-dimethoxyphenyl)-1-methylureido)pyrimidin-4-yl)amino)-3-methoxyphenyl)acrylamide] reads less than 1 nM; that for `C=CC(=O)Nc1ccccc1Nc1cc(N(CCOC)C(=O)Nc2c(Cl)c(OC)cc(OC)c2Cl)ncn1` [Compound 116, N-(2-{6-[3-(2,6-Dichloro-3,5-dimethoxy-phenyl)-1-(2-methoxy-ethyl)-ureido]-pyrimidin-4-ylamino}-phenyl)-acrylamide], 4 nM; that for `C=CC(=O)Nc1cccc(C)c1Nc1cc(N(C)C(=O)Nc2c(Cl)c(OC)cc(OC)c2Cl)ncn1` [Compound 165, N-(2-((6-(3-(2,6-dichloro-3,5-dimethoxyphenyl)-1-methylureido)pyrimidin-4-yl)amino)-3-methylphenyl)acrylamide], less than 1 nM. Regarding `COc1cc(OC)c(Cl)c(NC(=O)N(C)c2cc(Nc3ccccc3NC(=O)/C=C\Cl)ncn2)c1Cl` [Compound 171, (Z)-3-chloro-N-(2-((6-(3-(2,6-dichloro-3,5-dimethoxyphenyl)-1-methylureido)pyrimidin-4-yl)amino)phenyl)acrylamide], half-maximal inhibition (IC50) was put at 3 nM. For the compound `C=CC(=O)Nc1cc(C(=O)N(C)C)ccc1Nc1cc(N(C)C(=O)Nc2c(Cl)c(OC)cc(OC)c2Cl)ncn1` [Compound 149, 3-acrylamido-4-((6-(3-(2,6-dichloro-3,5-dimethoxyphenyl)-1-methylureido)pyrimidin-4-yl)amino)-N,N-dimethylbenzamide], the IC50 is less than 1 nM. `C=CC(=O)Nc1cc(OCCO)ccc1Nc1cc(N(C)C(=O)Nc2c(Cl)c(OC)cc(OC)c2Cl)ncn1` [Compound 164, 2,2,2-trifluoroacetate] came in with an IC50 of less than 1 nM.

For the compound `C=CC(=O)Nc1cc(C(C)OC)ccc1Nc1cc(N(C)C(=O)Nc2c(Cl)c(OC)cc(OC)c2Cl)ncn1` (centres unmarked) [Compound 155, N-(2-((6-(3-(2,6-dichloro-3,5-dimethoxyphenyl)-1-methylureido)pyrimidin-4-yl)amino)-5-(1-methoxyethyl)phenyl)acrylamide], the IC50 is less than 1 nM. The same measure, in the same setting: with `C=CC(=O)Nc1cc(N2CCN(CCN)CC2)ccc1Nc1cc(N(C)C(=O)Nc2c(Cl)c(OC)cc(OC)c2Cl)ncn1` [Compound 161, N-(5-(4-(2-aminoethyl)piperazin-1-yl)-2-((6-(3-(2,6-dichloro-3,5-dimethoxyphenyl)-1-methylureido)pyrimidin-4-yl)amino)phenyl)acrylamide 2 TFA salt] the figure was less than 1 nM; with `C=CC(=O)Nc1cc(N2CCN(C)CC2)ccc1Nc1cc(N(C)C(=O)Nc2c(Cl)c(OC)cc(OC)c2Cl)ncn1` [Compound 159], less than 1 nM. As for `C=CC(=O)Nc1cc(N2CCN(CC)CC2)ccc1Nc1cc(N(C)C(=O)Nc2c(F)c(OC)cc(OC)c2Cl)ncn1` [Compound 144, N-(2-((6-(3-(2-chloro-6-fluoro-3,5-dimethoxyphenyl)-1-methylureido)pyrimidin-4-yl)amino)-5-(4-ethylpiperazin-1-yl)phenyl)acrylamide], the IC50 is less than 1 nM. Compound `C=CC(=O)Nc1cc(N2CCN(CC)CC2)ccc1Nc1cc(N(C)C(=O)Nc2cc(OC)cc(OC)c2Cl)ncn1` [Compound 141, N-(2-((6-(3-(2-chloro-3,5-dimethoxyphenyl)-1-methylureido)pyrimidin-4-yl)amino)-5-(4-ethylpiperazin-1-yl)phenyl)acrylamide] registered an IC50 of 2 nM.

Turning to `C=CC(=O)Nc1ccccc1Nc1cc(N(CCNC(C)C)C(=O)Nc2c(Cl)c(OC)cc(OC)c2Cl)ncn1` [Compound 183], the IC50 worked out at 180 nM. On to `C=CC(=O)Nc1c(Nc2cc(N(C)C(=O)Nc3c(Cl)c(OC)cc(OC)c3Cl)ncn2)cccc1OC` [Compound 186], for which 345 nM corresponded to half-maximal inhibition (IC50). `C#CC(=O)Nc1ccccc1Nc1cc(N(C)C(=O)Nc2c(Cl)c(OC)cc(OC)c2Cl)ncn1` [Compound 114, N-(2-(6-(3-(2,6-dichloro-3,5-dimethoxyphenyl)-1-methylureido)pyrimidin-4-ylamino)phenyl)propiolamide] gave an IC50 of less than 1 nM. In the case of `C=CC(=O)Nc1ccccc1Nc1cc(N(Cc2ccncc2)C(=O)Nc2c(Cl)c(OC)cc(OC)c2Cl)ncn1` [Compound 132], the IC50 was less than 1 nM.

In the case of `C=CC(=O)Nc1cc(N2CCN(CC)CC2)ccc1Nc1cc(N(C)C(=O)Nc2c(Cl)cccc2Cl)ncn1` [Compound 140, N-(2-((6-(3-(2,6-dichlorophenyl)-1-methylureido)pyrimidin-4-yl)amino)-5-(4-ethylpiperazin-1-yl)phenyl)acrylamide], the IC50 was less than 1 nM. Still for that read-out and setting: with `C=CC(=O)Nc1ccccc1Nc1cc(N(Cc2ccccc2)C(=O)Nc2c(Cl)c(OC)cc(OC)c2Cl)ncn1` [Compound 130, N-(2-{6-[1-Benzyl-3-(2,6-dichloro-3,5-dimethoxy-phenyl)-ureido]-pyrimidin-4-ylamino}-phenyl)-acrylamide] the figure was 2 nM; with `C=CC(=O)Nc1cc(N2C[C@@H](C)N[C@@H](C)C2)ccc1Nc1cc(N(C)C(=O)Nc2c(Cl)c(OC)cc(OC)c2Cl)ncn1` [Compound 124, N-[2-{6-[3-(2,6-Dichloro-3,5-dimethoxy-phenyl)-1-methyl-ureido]-pyrimidin-4-ylamino}-5-(3,5-dimethyl-piperazin-1-yl)-phenyl]-acrylamide], less than 1 nM. On to `C=CC(=O)Nc1cc(C(=O)N2CCN(CC)CC2)ccc1Nc1cc(N(C)C(=O)Nc2c(Cl)c(OC)cc(OC)c2Cl)ncn1` [Compound 150, N-(2-((6-(3-(2,6-dichloro-3,5-dimethoxyphenyl)-1-methylureido)pyrimidin-4-yl)amino)-5-(4-ethylpiperazine-1-carbonyl)phenyl)acrylamide], for which the IC50 is less than 1 nM.

In turn, `C=CC(=O)N(C)c1cc(N2CCN(CC)CC2)ccc1Nc1cc(N(C)C(=O)Nc2c(Cl)c(OC)cc(OC)c2Cl)ncn1` [Compound 152] displayed an IC50 of 14 nM. `C=CC(=O)Nc1ccccc1Nc1cc(N(Cc2ccccn2)C(=O)Nc2c(Cl)c(OC)cc(OC)c2Cl)ncn1` [Compound 131, N-(2-{6-[3-(2,6-Dichloro-3,5-dimethoxy-phenyl)-1-pyridin-2-ylmethyl-ureido]-pyrimidin-4-ylamino}-phenyl)-acrylamide]: the IC50 is less than 1 nM.

For the compound `C=CC(=O)Nc1cc(N(C)CCO)ccc1Nc1cc(N(C)C(=O)Nc2c(Cl)c(OC)cc(OC)c2Cl)ncn1` [Compound 158, N-(2-((6-(3-(2,6-dichloro-3,5-dimethoxyphenyl)-1-methylureido)pyrimidin-4-yl)amino)-5-((2-hydroxyethyl)(methyl)amino)phenyl)acrylamide], the IC50 was less than 1 nM. `C=CC(=O)Nc1cc(N2CCN(CC)CC2)ccc1Nc1cc(N(C)C(=O)Nc2c(F)c(OC)cc(OC)c2F)ncn1` [Compound 143] had an IC50 of 10 nM. For the compound `C=CC(=O)Nc1cc(N2CCN(CCO)CC2)ccc1Nc1cc(N(C)C(=O)Nc2c(Cl)c(OC)cc(OC)c2Cl)ncn1` [Compound 168, N-(2-((6-(3-(2,6-dichloro-3,5-dimethoxyphenyl)-1-methylureido)pyrimidin-4-yl)amino)-5-(4-(2-hydroxyethyl)piperazin-1-yl)phenyl)acrylamide TFA salt], the IC50 is less than 1 nM. With `C=CC(=O)Nc1cccc(Cl)c1Nc1cc(N(C)C(=O)Nc2c(Cl)c(OC)cc(OC)c2Cl)ncn1` [Compound 167, N-(3-chloro-2-((6-(3-(2,6-dichloro-3,5-dimethoxyphenyl)-1-methylureido)pyrimidin-4-yl)amino)phenyl)acrylamide], the IC50 was less than 1 nM. In turn, `C=CC(=O)Nc1c(F)cccc1Nc1cc(N(C)C(=O)Nc2c(Cl)c(OC)cc(OC)c2Cl)ncn1` [Compound 185, N-(2-((6-(3-(2,6-dichloro-3,5-dimethoxyphenyl)-1-methylureido)pyrimidin-4-yl)amino)-6-fluorophenyl)acrylamide] returned an IC50 of 13 nM.

`C=CC(=O)Nc1ccccc1Nc1cc(N(CCCN2CCN(C)CC2)C(=O)Nc2c(Cl)c(OC)cc(OC)c2Cl)ncn1` [Compound 121, N-[2-(6-{3-(2,6-Dichloro-3,5-dimethoxy-phenyl)-1-[3-(4-methyl-piperazin-1-yl)-propyl]-ureido}-pyrimidin-4-ylamino)-phenyl]-acrylamide] had an IC50 of less than 1 nM.

Compound `COc1cc(OC)c(Cl)c(NC(=O)N(C)c2cc(Nc3ccccc3NC(=O)/C=C/Cl)ncn2)c1Cl` [Compound 170, (E)-3-chloro-N-(2-((6-(3-(2,6-dichloro-3,5-dimethoxyphenyl)-1-methylureido)pyrimidin-4-yl)amino)phenyl)acrylamide] registered an IC50 of 8 nM. As to `C=CC(=O)Nc1cc(N2CCN(S(C)(=O)=O)CC2)ccc1Nc1cc(N(C)C(=O)Nc2c(Cl)c(OC)cc(OC)c2Cl)ncn1` [Compound 125, N-[2-{6-[3-(2,6-Dichloro-3,5-dimethoxy-phenyl)-1-methyl-ureido]-pyrimidin-4-ylamino}-5-(4-methanesulfonyl-piperazin-1-yl)-phenyl]-acrylamide], the IC50 is less than 1 nM.
